Read-outs that look alike come from different tables or passages of the source.
Columns and labels:
Plasmopara viticola [1] = format: cell-based
Escherichia coli = format: cell-based; conditions: 100 μM and 200 μM in LB medium, 37 °C, OD600 every hour for 5 h, three biological replicates
HKC8 cells = conditions: 400 μM, HKC8 at 1 K, 3 K and 6 K cells/100 μl, four biological replicates
[2] = tested on: Agrobacterium tumefaciens; format: cell-based; conditions: 100 μM and 200 μM in LB medium, 28 °C, OD600 every hour for 5 h, three biological replicates
[3] = tested on: Plasmopara viticola zoospores; format: cell-based; conditions: 200 μM, leaf disks, 6 h in the dark at 22 °C, SEM
Plasmopara viticola [4] = format: cell-based; conditions: 5 and 7 dpi; for effect on P. viticola disease severity on leaf disks: 200 μM peptide co-inoculated with sporangia, Pinot noir leaf disks, ten replicates from two experiments
[5] = tested on: Bacillus amyloliquefaciens (subsp. plantarum) strain D 747; format: cell-based; conditions: 100 μM and 200 μM in LB medium, 37 °C, OD600 every hour for 5 h, three biological replicates
Erysiphe necator = format: cell-based; conditions: 200 μM and 400 μM, young grapevine leaves, 14 dpi
[6] = tested on: Pinot noir leaves, photosystem II; conditions: grapevine leaves, 7 days after treatment, average ± SD of 3 measurements
[7] = tested on: P. viticola cellulose synthase 2 (PvCesA2), cytoplasmic portion aa 331 to 790; format: binding, Plasmopara viticola; conditions: growth on selective media lacking adenine or histidine, 10 mM 3-AT; sequence found at least three times among 30 colonies
Phytophthora infestans = format: cell-based; conditions: 100 μM and 200 μM in pea agar medium, 20 °C, radial growth at 4, 5 and 7 dpi
Plasmopara viticola [8] = format: in vivo; conditions: for disease severity of plants: average ± standard error

Substance: H-RLTAQCRL-OH [NoPv1, peptide aptamer of 8 L-amino acid residues, RLTAQCRL, isolated with PvCesA2 as bait]
- treatment efficacy, preventive application (Plasmopara viticola [1]; 400 μM applied 7 days before inoculation (-7 d), leaf disks): effective in suppressing P. viticola infection
- treatment efficacy, post-inoculation (curative) application (Plasmopara viticola [1]; 400 μM applied +1 h to +2 d after P. viticola inoculation, leaf disks): efficacy decreased very rapidly
- Disease severity (Plasmopara viticola [1]; 400 μM sprayed +1 h after inoculation, leaf disks, 7 dpi, mean of ten replicates): 18.00%
- Disease severity (Plasmopara viticola [1]; 400 μM sprayed +1 d after inoculation, leaf disks, 7 dpi, mean of ten replicates): 23.76%
- Disease severity (Plasmopara viticola [1]; 400 μM sprayed +2 d after inoculation, leaf disks, 7 dpi, mean of ten replicates): 36.00%
- Disease severity (Plasmopara viticola [1]; 400 μM sprayed -2 h before inoculation, leaf disks, 7 dpi, mean of ten replicates): 1.58%
- Disease severity (Plasmopara viticola [1]; 400 μM sprayed -6 h before inoculation, leaf disks, 7 dpi, mean of ten replicates): 5.62%
- Disease severity (Plasmopara viticola [1]; 400 μM sprayed -1 d before inoculation, leaf disks, 7 dpi, mean of ten replicates): 6.17%
- Disease severity (Plasmopara viticola [1]; 400 μM sprayed -2 d before inoculation, leaf disks, 7 dpi, mean of ten replicates): 3.96%
- Disease severity (Plasmopara viticola [1]; 400 μM sprayed -5 d before inoculation, leaf disks, 7 dpi, mean of ten replicates): 2.23%
- Disease severity (Plasmopara viticola [1]; 400 μM sprayed -7 d before P. viticola inoculation, leaf disks, 7 dpi, mean of ten replicates from two experiments): 9.72%
- P. viticola severity on leaf disks after nebulization (Plasmopara viticola [1]; 400 μM, Potter Precision Spray Tower, 7 dpi): reduction of P. viticola severity
- Disease severity (Plasmopara viticola [1]; 400 μM, co-inoculation 0 h, leaf disks, 7 dpi, mean of ten replicates): 2.88%
- efficacy on leaf disks after nebulization compared with copper fungicide (Plasmopara viticola [1]; 800 μM vs Kocide 2000 1.42 g l^-1, Potter Precision Spray Tower): as effective as the copper-based fungicide Kocide 2000
- lowest concentration that maximises the efficacy against P. viticola (Plasmopara viticola [1]; nebulization on leaf disks, Potter Precision Spray Tower): 400 µM
- growth inhibition of E. coli (Escherichia coli): not able to inhibit the growth
- cell viability (MTT, absorbance at 570 nm) vs control (HKC8 cells; DMEM-F12, 24 h): No significant differences between control and treated samples
- cell viability (MTT, absorbance at 570 nm) vs control (HKC8 cells; DMEM-F12, 48 h): cytotoxic effects could only be observed at 1 K cell density
- growth inhibition of A. tumefaciens [2]: not able to inhibit the growth
- zoospores in which a germ tube primordium could be detected ([3]; 5 zoospores out of 160): 3.12%
- P. viticola germ tube formation ([3]; n = 160): unable to develop any germ tube
- effect on P. viticola disease severity on leaf disks (Plasmopara viticola [4]): completely inhibit
- anti-oomycete activity on leaf disks (Plasmopara viticola [4]; co-inoculation, 20 μM): no anti-oomycete activity
- P. viticola disease severity on leaf disks (Plasmopara viticola [4]; co-inoculation, 50 μM): almost half of the control sample
- percentage of leaf disk area covered by P. viticola sporulation (Plasmopara viticola [4]; co-inoculation, concentrations equal or higher than 100 μM): below 10%
- growth inhibition of B. amyloliquefaciens [5]: not able to inhibit the growth
- effect on E. necator disease severity on leaves (Erysiphe necator): not able to reduce the disease severity on leaves
- FV/FM, maximum quantum yield of photosystem II ([6]; 400 µM (P1)): 0.73 ± 0.01
- Y(II), effective quantum yield of photosystem II ([6]; 400 µM (P1)): 0.33 ± 0.02
- FV/FM, maximum quantum yield of photosystem II ([6]; 1 mM (P2)): 0.74 ± 0.01
- Y(II), effective quantum yield of photosystem II ([6]; 1 mM (P2)): 0.33 ± 0.01
- peptide aptamers interacting with PvCesA2 (yeast two-hybrid library screening) [7]: interacting with PvCesA2
- inhibition of P. infestans growth in vitro (Phytophthora infestans): able to inhibit P. infestans growth in vitro
- disease severity of plants (Plasmopara viticola [8]; 400 μM sprayed immediately before P. viticola inoculation, greenhouse Pinot noir plants): 27.3 ± 5.2%
- disease severity of plants (Plasmopara viticola [8]; 800 μM sprayed immediately before P. viticola inoculation, greenhouse plants): 26.2 ± 4.2%
- NoPv1 efficacy compared to control plants (Plasmopara viticola [8]; 1 mM applied at -7 d, -2 d and 0 h, greenhouse plants, 7 dpi): higher than 60%
- Disease severity (Plasmopara viticola [8]; 1 mM sprayed -7 d before inoculation, greenhouse plants, 7 dpi, mean of ten replicates from two experiments): 15.89%
- disease severity of plants (Plasmopara viticola [8]; 1 mM sprayed immediately before P. viticola inoculation, greenhouse plants): 20.8 ± 2.4%
- disease severity of plants (Plasmopara viticola [8]; 2 mM sprayed immediately before P. viticola inoculation, greenhouse plants): 21.1 ± 4.2
- lowest concentration showing a P. viticola severity comparable to the copper treatment (Plasmopara viticola [8]; greenhouse plants, sprayed immediately before inoculation): 1 mM

Substance: H-LFPFVSSM-OH [NoPv2, 8 a.a. peptide aptamer identified by yeast two-hybrid assay using PvCesA2 as bait]
- effect on P. viticola disease severity on leaf disks (Plasmopara viticola [4]): intermediate
- peptide aptamers interacting with PvCesA2 (yeast two-hybrid library screening) [7]: interacting with PvCesA2

Substance: H-MLLHSELC-OH [NoPv3, 8 a.a. peptide aptamer identified by yeast two-hybrid assay using PvCesA2 as bait]
- effect on P. viticola disease severity on leaf disks (Plasmopara viticola [4]): no effect
- peptide aptamers interacting with PvCesA2 (yeast two-hybrid library screening) [7]: interacting with PvCesA2

— paper PMC7567880 (Scientific Reports, 2020)
